This note sets out measurements from US20230111310A1, “CARBOXYLIC ACID DERIVATIVE-SUBSTITUTED IMINO ARYL COMPOUND, PREPARATION METHOD THEREFOR, HERBICIDAL COMPOSITION AND USE THEREOF” (Qingdao Kingagroot Chemical Compound Co., Ltd., priority 2020, published 2023).

What all share (assay): Weeding effect in post-emergence stage
Common to all, as to assay type: in vivo
Details in all cases: level of fresh weight growth control rate

One assay deals with Alopecurus japonicus. Put shortly: (§1)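 Pot-grown greenhouse plants sprayed at 2–3 leaf stage, 2 weeks after sowing, with compound in acetone/Tween 80 plus methyl oleate emulsifiable concentrate (1.5 liter/ha) at 500–7.5 g/ha. Growth control rated 3 weeks after treatment; mean of three replicates.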
A further assay concerns Digitaria sanguinalis. Put shortly: as §1
The test system of a further assay is Abutilon theophrasti. The gist of the method: as §1
Another assay concerns Eleusine indica. Put shortly:
as §1

Another assay concerns Setaria viridis. The gist of the method:
as §1

Another assay concerns Echinochloa crusgalli. The gist of the method:
as §1

As for `CSCCOC(=O)C(C)O/N=C/c1cc(-n2c(=O)cc(C(F)(F)F)n(C)c2=O)c(F)cc1Cl` (stereo not drawn) [Compound 234], in the assay on Alopecurus japonicus (Dose 15 g/ha), the “Weeding effect in post-emergence stage, Alopecurus japonicus” value (“Weeding effect … Alopecurus japonicus” for short) is on record as 5 (Level 5: growth control rate is above 85%). Moreover, the “Weeding effect in post-emergence stage, Digitaria sanguinalis” value (“Weeding effect … Digitaria sanguinalis” below) with Digitaria sanguinalis (Dose 15 g/ha) is listed as 5 (Level 5: growth control rate is above 85%). In addition, in the assay on Abutilon theophrasti (Dose 15 g/ha), the “Weeding effect in post-emergence stage, Abutilon theophrasti” value (“Weeding effect … Abutilon theophrasti” below) is given as 5 (Level 5: growth control rate is above 85%). Besides, the “Weeding effect in post-emergence stage, Eleusine indica” value (shortened to “Weeding effect … Eleusine indica”) in the assay on Eleusine indica (Dose 15 g/ha) was 5 (Level 5: growth control rate is above 85%). Also, the “Weeding effect in post-emergence stage, Setaria viridis” value (“Weeding effect … Setaria viridis” below) in the assay on Setaria viridis (Dose 15 g/ha) is listed as 5 (Level 5: growth control rate is above 85%). Further, the “Weeding effect in post-emergence stage, Echinochloa crusgalli” value (from here on “Weeding effect … Echinochloa crusgalli”) with Echinochloa crusgalli (Dose 15 g/ha) is given as 5 (Level 5: growth control rate is above 85%).

As for `CCCOC(=O)OC(=O)C(C)O/N=C/c1cc(-n2c(=O)cc(C(F)(F)F)n(C)c2=O)c(F)cc1Cl` (stereo not drawn) [Compound 236], in the assay with Alopecurus japonicus (Dose 60 g/ha), the “Weeding effect … Alopecurus japonicus” value is reported as 5 (Level 5: growth control rate is above 85%). In addition, the “Weeding effect … Digitaria sanguinalis” value in the assay on Digitaria sanguinalis (Dose 60 g/ha) is on record as 5 (Level 5: growth control rate is above 85%). In the assay with Abutilon theophrasti (Dose 60 g/ha), the “Weeding effect … Abutilon theophrasti” value is on record as 5 (Level 5: growth control rate is above 85%). Besides, the “Weeding effect … Eleusine indica” value with Eleusine indica (Dose 60 g/ha) was 5 (Level 5: growth control rate is above 85%). The “Weeding effect … Setaria viridis” value with Setaria viridis (Dose 60 g/ha) is on record as 5 (Level 5: growth control rate is above 85%). Further, the “Weeding effect … Echinochloa crusgalli” value with Echinochloa crusgalli (Dose 60 g/ha) is 5 (Level 5: growth control rate is above 85%).

Regarding `CC(=O)COC(=O)C(C)O/N=C/c1cc(-n2c(=O)cc(C(F)(F)F)n(C)c2=O)c(F)cc1Cl` (stereo not drawn) [Compound 238], the “Weeding effect … Alopecurus japonicus” value in the assay with Alopecurus japonicus (Dose 15 g/ha) is on record as 5 (Level 5: growth control rate is above 85%). The “Weeding effect … Digitaria sanguinalis” value with Digitaria sanguinalis (Dose 15 g/ha) is 5 (Level 5: growth control rate is above 85%). In the assay on Abutilon theophrasti (Dose 15 g/ha), the “Weeding effect … Abutilon theophrasti” value is reported as 5 (Level 5: growth control rate is above 85%). Also, in the assay with Eleusine indica (Dose 15 g/ha), the “Weeding effect … Eleusine indica” value was 5 (Level 5: growth control rate is above 85%). For the same compound, in the assay with Setaria viridis (Dose 15 g/ha), the “Weeding effect … Setaria viridis” value is on record as 5 (Level 5: growth control rate is above 85%). The “Weeding effect … Echinochloa crusgalli” value in the assay with Echinochloa crusgalli (Dose 15 g/ha) was 5 (Level 5: growth control rate is above 85%).

As to `CCOC(=O)COC(=O)C(C)O/N=C/c1cc(-n2c(=O)cc(C(F)(F)F)n(C)c2=O)c(F)cc1Cl` (stereo not drawn) [Compound 239], the “Weeding effect … Alopecurus japonicus” value in the assay with Alopecurus japonicus (Dose 15 g/ha) is 5 (Level 5: growth control rate is above 85%). Further, the “Weeding effect … Digitaria sanguinalis” value in the assay on Digitaria sanguinalis (Dose 15 g/ha) is given as 5 (Level 5: growth control rate is above 85%). In addition, in the assay with Abutilon theophrasti (Dose 15 g/ha), the “Weeding effect … Abutilon theophrasti” value was 5 (Level 5: growth control rate is above 85%). Besides, in the assay on Eleusine indica (Dose 15 g/ha), the “Weeding effect … Eleusine indica” value is 5 (Level 5: growth control rate is above 85%). Further, in the assay with Setaria viridis (Dose 15 g/ha), the “Weeding effect … Setaria viridis” value was 5 (Level 5: growth control rate is above 85%). In addition, the “Weeding effect … Echinochloa crusgalli” value in the assay on Echinochloa crusgalli (Dose 15 g/ha) is given as 5 (Level 5: growth control rate is above 85%).

For the compound `COC(=O)CCOC(=O)C(C)O/N=C/c1cc(-n2c(=O)cc(C(F)(F)F)n(C)c2=O)c(F)cc1Cl` (stereo not drawn) [Compound 240], in the assay on Alopecurus japonicus (Dose 30 g/ha), the “Weeding effect … Alopecurus japonicus” value was 5 (Level 5: growth control rate is above 85%). In the assay on Digitaria sanguinalis (Dose 30 g/ha), the “Weeding effect … Digitaria sanguinalis” value is on record as 5 (Level 5: growth control rate is above 85%). In addition, the “Weeding effect … Abutilon theophrasti” value in the assay with Abutilon theophrasti (Dose 30 g/ha) is reported as 5 (Level 5: growth control rate is above 85%). Moreover, the “Weeding effect … Eleusine indica” value with Eleusine indica (Dose 30 g/ha) is reported as 5 (Level 5: growth control rate is above 85%). Besides, in the assay with Setaria viridis (Dose 30 g/ha), the “Weeding effect … Setaria viridis” value is on record as 5 (Level 5: growth control rate is above 85%). Besides, in the assay on Echinochloa crusgalli (Dose 30 g/ha), the “Weeding effect … Echinochloa crusgalli” value was 5 (Level 5: growth control rate is above 85%).
